Measured values as given in US8545834B2, “G-substrate for the treatment and prevention of parkinson's disease” (The McLean Hospital Corporation, priority 2007, dated 2013).

Tested on: VMAT2
Assay: Western blot of VMAT2 expression in M17 cells
Type: cell-based, human
Source text: BE(2)-M17 cells were used to investigate the interaction between G-substrate and α-synuclein, a known risk factor and possible causative agent in Parkinson's disease. […] Likewise, VMAT2 expression was reduced in naïve M17 cells following the reduction in endogenous G-substrate using siRNA (FIG. 10C).
M17 cells transiently and stably overexpression α-synuclein were transfected using the G-substrate lentiviral vector described above.
The PP2A regulation of VMAT 2 was investigated in M17 cells. PP2A levels were reduced using RNAi. […] The effect of PP2A inhibition was not generalized to other dopaminergic markers tested.
Cells and tissue samples were collected from and suspended in lysis buffer containing: 50 mM Tris-HCl, 0.15 M NaCl, 0.32 M sucrose, 1.0 mM EDTA, and 1% NP-40. In addition, phosphatase inhibitors I and II (1:100) and protease inhibitors (1:100) were added fresh prior to cell lysis (Sigma-Aldrich, P2850, P5276, and P8340 respectively). Following cell lysis, the homogenate was centrifuged, a portion of the supernatant was reserved for protein determination (BCA Assay, Pierce, Rockford, Ill.) and the remaining was stored at −20° C. 20 μg (in vitro cell preps) and 50 μg (tissue dissections) of solubilized protein were mixed 1:1 with sample buffer and boiled for 5 min. The samples and molecular weight standards were separated using the Criterion precast 10% SDS-polyacrylamide gel system (Bio-Rad, Hercules, Calif.). After electrophoresis, the proteins were electrically transferred to PVDF membranes at 100 V for 30 min. After transfer, blots were incubated in Tris-buffered saline with 0.1% Tween 20 (TBS-T) containing 5% BSA. Subsequently, blots were incubated with the following antibodies at 4° C. overnight (1:1000 unless otherwise stated): phospho-Akt (ser473), phospho-GSK3β (ser9), phospho-erk1/2, and phospho-p38 (Cell Signaling Technologies, Danvers, Mass.). HRP-conjugated secondary antibodies were then applied and immunoreactive bands were visualized with chemiluminescence (Amersham Biosciences, Arlington Heights, Ill.) and exposed onto film. Immunoblots were then stripped and re-probed for the expression of the total protein (Cell Signaling) and beta-actin (1:10 000) (Abcam) to serve as a loading control. Optical density analysis (NIH image) was used to determine the relative abundance of protein in each sample. The optical densities of the phospho epitopes were standardized to their respective total proteins and this value was used in the statistical analyses.

**Q.** With “G-substrate: human wild type G-substrate (SEQ ID NO.: 1) overexpressed from a lentiviral vector” as the substance, how does the “VMAT2 expression in α-synuclein overexpressing cells” value (M17 cells transiently and stably overexpressing α-synuclein) read?
**A.** The value was “reversing the α-synuclein-induced loss of VMAT2”.

**Q.** And the VMAT2 expression (naïve M17 cells)?
**A.** The VMAT2 expression was “significant increase”.
